What was measured:
[1] = molecular target: SARS-CoV-2 M^pro (Severe acute respiratory syndrome coronavirus 2, UniProt P0DTD1); assay: FRET-based SARS-CoV-2 M^pro activity assay in vitro; assay type: biochemical; conditions: for Fold increase of inhibitory potency against M^pro compared to parental hit 7: compared to hit 7
[2] = test system: SARS-CoV-2; assay: Plaque reduction assay; assay type: cell-based, SARS-CoV-2/NL/2020 strain; conditions: ratio between CC50 and EC50; SARS-CoV-2, Vero E6 cells
[3] = MTT cell viability assay in Vero E6 cells; assay type: cell-based; conditions: African green monkey
[4] = test system: SARS-CoV-2; assay: Virus yield reduction assay of SARS-CoV-2 in Calu-3 cells; assay type: cell-based; conditions: MOI 0.01, 36 h p.i., titration on Vero E6
[5] = test system: SARS-CoV-2; assay: Time-of-addition experiments with SARS-CoV-2 in Vero E6 cells; assay type: cell-based; conditions: 50 μM, added at +4 h p.i.
[6] = test system: SARS-CoV-2 M^pro (NanoLuc-nsp4-M^pro fusion protein); assay type: cell-based

For CC(C)[C@H](NC(=O)c1ccccc1NC(=O)c1ccccn1)C(=O)N[C@H](CO)C(C)C [Compound 37, N-(2-(((S)-1-(((S)-1-Hydroxy-3-methylbutan-2-yl)amino)-3-methyl-1-oxobutan-2-yl)carbamoyl)phenyl)picolinamide], the IC50 [1] was 41.3 ± 7.6 µM, the “Fold increase of inhibitory potency against M^pro compared to parental hit 7” value [1] was over 2 fold and the “SI, Selectivity Index” value [2] was over 119. The CC50 at 72 h [3] was over 250 µM, the “SARS-CoV-2 titers in supernatants of infected and treated Calu-3 cells” value [4] was “confirmed active” and the “Time-of-addition: effect of addition at 4 h p.i.” value [5] was “still exerted an antiviral effect”. The “Inhibition of proteolytic cleavage of NanoLuc-nsp4-M^pro in cells” value [6] was “dose-dependent inhibition of the proteolytic cleavage”.
In the case of CC(C)[C@H](NC(=O)c1ccccc1NC(=O)c1ccccc1)C(=O)N[C@H](CO)C(C)C [Compound 36, 2-Benzamido-N-((S)-1-(((S)-1-hydroxy-3-methylbutan-2-yl)amino)-3-methyl-1-oxobutan-2-yl)benzamide], the IC50 [1] is reported as 42.9 ± 8.3 µM, the “Fold increase of inhibitory potency against M^pro compared to parental hit 7” value [1] is reported as over 2 fold and the “SI, Selectivity Index” value [2] is reported as over 192. The CC50 at 72 h [3] was over 250 µM, the “SARS-CoV-2 titers in supernatants of infected and treated Calu-3 cells” value [4] was “confirmed active” and the “Time-of-addition: effect of addition at 4 h p.i.” value [5] was “still exerted an antiviral effect”. For the same compound, the “Inhibition of proteolytic cleavage of NanoLuc-nsp4-M^pro in cells” value [6] was “dose-dependent inhibition of the proteolytic cleavage”.
